{"source": "patent US6130058A", "about": "“Human NMDA R2A receptor subunit and isoforms of the human NMDA-R1 receptor subunit and encoding cDNAs” (Merck Sharpe & Dohme Ltd., priority 1992, dated 2000)", "key": {"[1]": {"target": "recombinant R1a+R2A NMDA receptor expressed by population B cells (Homo sapiens, UniProt Q05586+Q12879)", "assay": "Whole cell patch clamp electrophysiology on population B cells", "format": "cell-based", "description": "The nature of the NMDA receptor expressed by population B cells has been extensively characterised by electrophysiological techniques, using whole cell patch clamp."}, "untransfected Ltk- cells": {"system": "untransfected Ltk- cells", "assay": "Radioligand binding to untransfected Ltk- cells (control)", "parameters": "species or system mouse", "procedure": "(§1) The nature of the recombinant R1a NMDA receptors prepared as described in Example 3 was addressed by characterization of the glycine site binding pharmacology, using the glycine site antagonist [^3 H]-L-689,560. For radioligand binding assays, cells which had been induced by culture in dexamethasone containing medium for 3-5 days were scraped off into 5 mM Tris-Acetate, pH 7.0 at 4° C. (buffer 1) and pelleted (20,000 rpm, Sorvall RC5C centrifuge). The cell pellet was resuspended in buffer 1, homogenised using an Ultra-Turrax homogeniser and then pelleted as above. This was repeated once more, and the cells then resuspended in 50 mM Tris-Acetate, pH 7.0 at 4° C. (buffer 2) at a protein concentration of 1 mg/ml. […] After 2 hours incubation on ice the membranes were harvested onto filters using a Brandel cell harvester, washed with cold buffer 2, and bound radioactivity determined by scintillation counting. Non-specific binding was determined in a parallel incubation containing 10 mM glycine. […]\n(§2) For radioligand binding assays, cells which had been induced by culture in dexamethasone, MgCl2 and D-AP5 containing medium for 3-5 days were scraped off into 5 mM Tris-Acetate, pH 7.0 at 4° C. […] After 2 hours at 25° C. in the presence of 30 μM glycine and 30 μM L-glutamate the membranes were washed with buffer 1 and bound radioactivity determined by scintillation counting. […]"}, "[2]": {"target": "recombinant R1a+R2A NMDA receptors (Homo sapiens, UniProt Q05586+Q12879)", "assay": "[3H]-dizocilpine radioligand binding to membranes of R1a+R2A transfected Ltk- cells (population B)", "conditions": "2 nM radioligand, 100 μg protein, 2 hours at 25° C., 30 μM glycine and 30 μM L-glutamate", "method": "Ltk^- cells were obtained from the Salk Institute for Biological Studies, San Diego, Calif. Cells were grown at 37° C., 5-8% CO2, in Modified Eagles Medium containing penicillin, streptomycin and 10% fetal calf serum. […] For co-transfection, Ltk^- cells were plated in dishes (approx. 2×10^5 cells/dish) and grown overnight. The transfection was performed by calcium phosphate precipitation using a kit (purchased from 5 Prime→3 Prime Products, Westchester, Pa.). Co-transfection was performed according to manufacturers' instructions, using 5 μg of each subunit DNA construct per 10 cm dish of cells. After 2 days in culture the cells were divided 1:8 into culture medium containing 1 mg/ml neomycin [Geneticin (obtainable from Gibco BRL, Paisley, Scotland, United Kingdom)]. […] Subclones were analysed using radioligand binding: subclones were grown in 10 cm culture dishes, and when confluent changed into culture medium containing 1 μM dexamethasone (obtainable from Sigma Chemical Company, Poole, Dorset, United Kingdom). […]\nFor radioligand binding assays, cells which had been induced by culture in dexamethasone, MgCl2 and D-AP5 containing medium for 3-5 days were scraped off into 5 mM Tris-Acetate, pH 7.0 at 4° C. […] Non-specific binding was determined in a parallel incubation containing 100 μM dizocilpine."}, "[3]": {"target": "T1, recombinant R1a NMDA receptors (Homo sapiens, UniProt Q05586)", "T1 construct": "expressed in transfected cells", "assay": "[3H]-L-689,560 radioligand binding to membranes of R1a transfected Ltk- cells (population A)", "conditions": "1 nM radioligand, 100 μg protein, 2 hours on ice, dexamethasone-induced cells", "procedure": "Ltk^- cells were obtained from the Salk Institute for Biological Studies, San Diego, Calif. Cells were grown at 37° C., 5-8% CO2, in Modified Eagles Medium containing penicillin, streptomycin and 10% fetal calf serum. […] For co-transfection, Ltk^- cells were plated in dishes (approx. 2×10^5 cells/dish) and grown overnight. The transfection was performed by calcium phosphate precipitation using a kit (purchased from 5 Prime→3 Prime Products, Westchester, Pa.). Co-transfection was performed according to manufacturers' instructions, using 5 μg of each subunit DNA construct per 10 cm dish of cells. After 2 days in culture the cells were divided 1:8 into culture medium containing 1 mg/ml neomycin [Geneticin (obtainable from Gibco BRL, Paisley, Scotland, United Kingdom)]. After a further week the concentration was increased to 1.5 mg/ml, and then 2 mg/ml 1 week after that. Resistant clones of cells were isolated and subcloned using cloning cylinders. Subclones were analysed using radioligand binding: subclones were grown in 10 cm culture dishes, and when confluent changed into culture medium containing 1 μM dexamethasone (obtainable from Sigma Chemical Company, Poole, Dorset, United Kingdom). […] Rev. Pharmacol. […] Non-specific binding was determined in a parallel incubation containing 10 mM glycine. […]"}, "[4]": {"target": "T2, recombinant R1a+R2A receptors (Homo sapiens, UniProt Q05586)", "T2 construct": "expressed in transfected cells", "assay": "[3H]-L-689,560 radioligand binding to membranes of R1a+R2A transfected Ltk- cells (population B)", "procedure": "as §1, §2"}}}
{"compound": "O=C(O)[C@H]1C[C@@H](CP(=O)(O)O)CCN1", "note": "(relative stereo) [CGS 19,755]", "values": [{"measurement": "antagonism of the response to glutamate and glycine", "setting": "[1]", "result": "antagonised"}]}
{"compound": "C[C@]12N[C@H](Cc3ccccc31)c1ccccc12", "note": "[[^3 H]-dizocilpine, dizocilpine]", "values": [{"measurement": "binding to untransfected Ltk- cells", "setting": "untransfected Ltk- cells; [3H]-dizocilpine binding conditions, 2 nM", "result": "No binding"}, {"measurement": "level of [3H]-dizocilpine bound", "setting": "[2]", "result": "up to 200 fmols/mg protein"}]}
{"compound": "O=C(Nc1ccccc1)N[C@@H]1C[C@@H](C(=O)O)Nc2cc(Cl)cc(Cl)c21", "note": "(relative stereo) [[^3 H]-L-689,560]", "values": [{"measurement": "binding to untransfected Ltk- cells", "setting": "untransfected Ltk- cells; [3H]-L-689,560 binding conditions, 1 nM", "result": "No binding"}, {"measurement": "level of [3H]-L-689,560 bound", "setting": "[3]", "result": "up to 3700 fmols/mg protein"}, {"measurement": "level of [3H]-L-689,560 bound", "setting": "[4]", "result": "up to 500 fmols/mg protein"}]}
